According to patent US9326970B2, “Choline esters” (Encore Health, LLC, priority 2009, dated 2016):

Columns and labels:
[1] = tested on: human umbilical vein endothelial cells (HUVEC, first passage); experiment: In vitro toxicology: cell viability (MultiTox-Fluor or Live/Dead assay); type: cell-based; conditions: doses ranging from 0.1 μM to 100 μM
Procedure: Cell viability was determined using human umbilical vein endothelial cells (HUVEC, first passage). Cells were treated with the active agent in doses ranging from 0.1 μM to 100 μM. The number of live and dead cells was determined using the MultiTox-Fluor assay (Promega) or Live/Dead® assay (Invitrogen). Logistic plots were used to determine the compound's LD50 value. Lipoic acid was not cytotoxic the concentration range.

mouse lenses = experiment: Increase in elasticity: lens organ culture, change in lens diameter under coverslip (ΔD)
Source text: FIG. 4 depicts a scatter plot of the change in ΔD (micrometers) in the absence (control) and presence of lipoic acid in lens organ culture experiments. […] Statistical values are highly significant at p<0.0001 by unpaired t-test and by Kruskal Wallis test, which compared medians of each data set. The relative change in Young's modulus (E) can be calculated as the cubic value derived from the ΔD of the control divided by the ΔD of the experimental or E fractional change=(ΔD con/ΔDexp)^3.
Increase in Elasticity: Pairs of mouse lenses were incubated in medium 200 supplemented with an antibiotic, an antimycotic, the presence or absence of lipoic acid (concentrations ranging from 0.5 μM to 500 μM) for 8-15 hours. Each lens was removed from medium, weighed, and photographed on a micrometer scale. A coverslip of known weight (0.17899±0.00200 g) was placed on the lens, and the lens was photographed again on the micrometer scale. The diameter of each lens with and without the coverslip was determined from the photographs. The change in lens diameter produced by the force (coverslip) was computed ΔD=(Dwithcoverslip−Dwithoutcoverslip).

[2] = tested on: protein disulfides in the mouse lenses; experiment: Decrease in disulfide bonds: protein SH/SS groups in lens homogenates
Procedure: FIG. 5 depicts a scattergram of the percent of the total protein SH groups in disulfide bonds. Free SH groups were alkylated with 4-acetamido-4′-maleimidylstilbene-2,2′-sulfonic acid (c, 1 μM, 5 μM, 9.6 μM, 50 μM, 96 μM) or 7-diethylamino-3-(4′maleimidylphenyl)-4-methyl coumarin (500 μM, and 500 μM c). Following removal of the first alkylating agent, the S—S bonds were reduced and alkylated with fluorescein-5-maleimide. Absorption spectra were used to calculated total protein (A280 nm), free protein SH (A322 or A384), and protein SS (A490) using the appropriate extinction coefficients. The symbol ‡ indicates statistically significant difference of mean with mean of control (c, p≦0.05).
Mouse lenses were homogenized in a denaturing buffer containing a fluorescent alkylating agent to modify the free SH groups. After removing the alkylating agent homogenates were reduced and alkylated with a different fluorescent alkylating agent. Absorption spectra of the modified proteins were used to calculate free protein SH and protein SS groups.

O=C(O)CCCCC1CCSS1 (centres unmarked) [Lipoic acid, 5-(1,2-dithiolan-3-yl)pentanoic acid]
cytotoxicity (cell viability, LD50 from logistic plots) [1]: not cytotoxic | change in ΔD (micrometers) compared to controls, FIG. 4 (mouse lenses; lens organ culture, data sets marked ‡, p<0.0001 by unpaired t-test and Kruskal Wallis test): significantly larger changes in ΔD | change in ΔD (lens diameter with coverslip minus without) (mouse lenses; lipoic acid at concentrations ≧9.6 μM, 8-15 hours incubation, vs control, p<0.0001): statistically significant increase in ΔD | percent of the total protein SH groups in disulfide bonds, FIG. 5 ([2]; 500 μM lipoic acid vs 500 μM control, p=0.027): significantly different | protein disulfides ([2]; lipoic acid at concentrations ≧9.6 μM, mouse lenses with a significant increase in ΔD): statistically significant decrease in protein disulfides
